# Assay results reported in patent US20100022491A1, “4-HYDROXY-2-OXO-2,3-DIHYDRO-1,3-BENZOTHIAZOL-7YL COMPOUNDS FOR MODULATION OF B2-ADRENORECEPTOR ACTIVITY” (ASTRAZENECA AB, priority 2006, published 2010).
# Structures can show the parent of a compound that is named as a salt.
# Columns and labels:
# [1] = target: T1, Adrenergic β2 (Homo sapiens, UniProt P07550); assay: Adrenergic β2 mediated cAMP production in H292 cells; format: cell-based; details: for EC50: H292 cells, cAMP by AlphaScreen, 60 minutes at room temperature, rolipram 300 μM, read-out: β2 pEC50 (converted); for β2 Int Act: Intrinsic Activity as a fraction relative to the maximum activity determined for formoterol
# T1 construct: Adherent H292 cells were removed from tissue culture flasks; endogenous in cells; host or cells: H292 cells
# T1 sequence (P07550 whole entry): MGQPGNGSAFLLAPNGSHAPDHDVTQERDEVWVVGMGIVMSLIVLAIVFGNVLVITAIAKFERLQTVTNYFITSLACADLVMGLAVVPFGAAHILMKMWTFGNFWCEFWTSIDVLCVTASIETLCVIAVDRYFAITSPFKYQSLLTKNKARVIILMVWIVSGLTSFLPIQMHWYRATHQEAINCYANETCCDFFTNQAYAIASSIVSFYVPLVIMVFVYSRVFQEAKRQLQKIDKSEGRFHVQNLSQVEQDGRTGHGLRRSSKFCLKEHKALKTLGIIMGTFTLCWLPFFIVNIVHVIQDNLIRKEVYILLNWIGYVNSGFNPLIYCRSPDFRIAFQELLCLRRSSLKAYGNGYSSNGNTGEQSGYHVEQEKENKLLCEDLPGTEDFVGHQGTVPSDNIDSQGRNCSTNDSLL
# Outline: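 H292 cells pretreated 10 min with rolipram (300 μM final), then exposed to agonist 60 min at room temperature in HEPES-buffered HBSS, 1.6% DMSO final. Lysate cAMP quantified by AlphaScreen against a cAMP standard curve; four-parameter fit gives pEC50 and intrinsic activity relative to formoterol maximum.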
# [2] = target: T2, recombinant human Dopamine Subtype D2s receptors (Homo sapiens, UniProt P14416); assay: Dopamine D2 selectivity binding assay ([3H]-spiperone); details: inhibition of [3H]-spiperone (0.16 nM) binding; read-out: D2 bind pIC50 (converted)
# T2 construct: purchased Perkin Elmer
# T2 sequence (P14416 1-414 isoform P14416-2): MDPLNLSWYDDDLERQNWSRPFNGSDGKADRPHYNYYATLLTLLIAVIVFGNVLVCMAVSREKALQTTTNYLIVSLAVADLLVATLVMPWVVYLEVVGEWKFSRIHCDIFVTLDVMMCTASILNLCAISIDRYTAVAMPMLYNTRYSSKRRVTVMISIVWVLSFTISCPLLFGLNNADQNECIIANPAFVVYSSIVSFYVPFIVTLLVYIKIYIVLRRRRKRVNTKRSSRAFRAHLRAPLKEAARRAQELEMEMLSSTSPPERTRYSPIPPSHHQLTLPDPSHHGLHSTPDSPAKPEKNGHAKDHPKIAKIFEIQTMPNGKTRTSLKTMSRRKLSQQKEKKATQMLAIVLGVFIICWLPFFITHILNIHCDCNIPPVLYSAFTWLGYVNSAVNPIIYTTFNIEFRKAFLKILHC
# Outline: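 Recombinant human D2s membranes incubated 2 h at room temperature with 0.16 nM [3H]-spiperone in HEPES/EDTA/NaCl/gelatin buffer, pH 7.4; 10 μM haloperidol defined non-specific binding. Filter-bound radioactivity counted after cold washes. pIC50 from 4-parameter logistic fit of NSB-corrected specific binding.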
EC50 [1] [nM],β2 Int Act [1],IC50 [2] [nM],Structure (SMILES)
10,0.69,50.1,"O=C(CCNCCc1cccc(OC(F)F)c1)N(CCNCCc1ccc(O)c2[nH]c(=O)sc12)C1CCCCCC1 [Example 54, N-Cycloheptyl-N^3-{2-[3-(difluoromethoxy)phenyl]ethyl}-N^1-(2-{[2-(4-hydroxy-2-oxo-2,3-dihydro-1,3-benzothiazol-7-yl)ethyl]amino}ethyl)-β-alaninamide bis-trifluoroacetic acid salt]"
158,0.54,158,"O=C(CCNCCc1nc2ccccc2[nH]1)N(CCNCCc1ccc(O)c2[nH]c(=O)sc12)C1CCCCC1 [Example 77, N^3-[2-(1H-Benzimidazol-2-yl)ethyl]-N^1-cyclohexyl-N^1-(2-{[2-(4-hydroxy-2-oxo-2,3-dihydro-1,3-benzothiazol-7-yl)ethyl]amino}ethyl)-β-alaninamide tris-trifluoroacetic acid salt]"
3.16,0.73,158,"O=C(CCNCCc1cccc(Cl)c1)N(CCNCCc1ccc(O)c2[nH]c(=O)sc12)C1CCC(F)(F)CC1 [Example 47, N^3-[2-(3-Chlorophenyl)ethyl]-N^1-(4,4-difluorocyclohexyl)-N^1-(2-{[2-(4-hydroxy-2-oxo-2,3-dihydro-1,3-benzothiazol-7-yl)ethyl]amino}ethyl)-β-alaninamide bis-trifluoroacetic acid salt]"
25.1,0.55,251,"CC(C)(CN(CCNCCc1ccc(O)c2[nH]c(=O)sc12)C(=O)CCNCCc1ccccc1)c1ccccc1 [Example 45, N^1-(2-{[2-(4-Hydroxy-2-oxo-2,3-dihydro-1,3-benzothiazol-7-yl)ethyl]amino}ethyl)-N^1-(2-methyl-2-phenylpropyl)-N^3-(2-phenylethyl)-β-alaninamide bis-trifluoroacetic acid salt]"
2,0.89,200,"CC(C)(C)CN(CCNCCc1ccc(O)c2[nH]c(=O)sc12)C(=O)CCNCCc1ccccc1 [Example 6, N-(2,2-Dimethylpropyl)-N-(2-{[2-(4-hydroxy-2-oxo-2,3-dihydro-1,3-benzothiazol-7-yl)ethyl]amino}ethyl)-N^3-(2-phenylethyl)-β-alaninamide bis-trifluoroacetic acid salt]"
3.98,0.84,501,"Cc1cccc(CCNCCC(=O)N(CCNCCc2ccc(O)c3[nH]c(=O)sc23)C2CCCCC2)c1 [Example 14, N-Cyclohexyl-N-(2-{[2-(4-hydroxy-2-oxo-2,3-dihydro-1,3-benzothiazol-7-yl)ethyl]amino}ethyl)-N^3-[2-(3-methylphenyl)ethyl]-β-alaninamide bis-trifluoroacetic acid salt]"
2.51,0.87,50.1,"O=C(CCNCCc1cccc(Cl)c1)N(CCNCCc1ccc(O)c2[nH]c(=O)sc12)C1CCCCC1 [Example 12, N^3-[2-(3-Chlorophenyl)ethyl]-N-cyclohexyl-N-(2-{[2-(4-hydroxy-2-oxo-2,3-dihydro-1,3-benzothiazol-7-yl)ethyl]amino}ethyl)-β-alaninamide bis-trifluoroacetic acid salt]"
10,0.87,398,"O=C(CCNCCc1ccc(Cl)cc1)N(CCNCCc1ccc(O)c2[nH]c(=O)sc12)C1CCCC1 [Example 28, N^3-[2-(4-Chlorophenyl)ethyl]-N-cyclopentyl-N-(2-{[2-(4-hydroxy-2-oxo-2,3-dihydro-1,3-benzothiazol-7-yl)ethyl]amino}ethyl)-β-alaninamide bis-trifluoroacetic acid salt]"
10,0.91,398,"O=C(CCNC[C@H](O)c1ccccc1)N(CCNCCc1ccc(O)c2[nH]c(=O)sc12)C1CCCCC1 [Example 75, N^1-Cyclohexyl-N^1-(2-{[2-(4-hydroxy-2-oxo-2,3-dihydro-1,3-benzothiazol-7-yl)ethyl]amino}ethyl)-N^3-[(2R)-2-hydroxy-2-phenylethyl]-β-alaninamide bis-trifluoroacetic acid salt]"
